Test results published in patent publication US6498137B1, “Aerosol cleaning composition containing an organic acid and a spore forming microbial composition” (Spartan Chemical Company, Inc., priority 2001, dated 2002).

Assays:
test organism = assay: Nisin in letheen broth sub-culture: effect on the test organism; assay type: cell-based; conditions: 0.1 μg/ml nisin in letheen broth
Procedure: (§1) Nisin is not an ingredient in the product formulation. It is a modification to the AOAC test method. Specifically, when setting up the test sub-culture 0.1 μg/ml of nisin is added to the letheen broth.

Bacillus spores = assay: Nisin in letheen broth sub-culture: out-growth of Bacillus spores; assay type: cell-based; conditions: 0.1 μg/ml nisin in letheen broth
Procedure: as §1

For nisin, the “bacteriostatic effect on the test organism” value (test organism) was “no bacteriostatic effect” and the “out-growth of Bacillus spores transferred on the carrier” value (Bacillus spores) was “inhibits out-growth”.
